Read-outs that look alike come from different tables or passages of the source. Where a SMILES comes first, the peptide text is derived from it. The star is where a group is joined. Cbz = O=C(OCc1ccccc1)*; CH2F = FC*
Experiments:
Human Jurkat cells = experiment: Velcade-induced apoptosis of Jurkat cells, CellTiter-Glo viability; format: cell-based; settings: 24 hours
Procedure: (§1) Human Jurkat cells were seeded in 96-well plates (20000 cells per well). Different concentrations of the compounds were added one hour prior to Velcade treatment, followed by the addition of 50 nM Velcade. After incubation for 24 hours, cell viability was measured by CellTiter-Glo Luminescent Cell Viability Assay.
(§2) The rates of cell death were measured in triplicate or quadruplicate in a 96-well or 384-well plate by using SYTOX Green Nucleic Acid Stain (Invitrogen) or ToxiLight Non-destructive Cytotoxicity BioAssay Kit (Lonza). The intensity of luminescence was determined in an EnSpire Multimode Plate Reader (PerkinElmer). Cytotoxicity is expressed as percentages of cell death per well after deducting the background signal in non-induced cells and compared to that of the maximal cell death with 100% Lysis Reagent. The rates of cell viability were determined by using CellTiter-Glo Luminescent Cell Viability Assay (Promega) following the manufacturer's protocol and the results are expressed as percentages of luminescence intensity per well after deducting the background signal in blank well and compared to that of the viability in the non-treated wells. Concentration of drugs used for inducing or inhibiting cell death, mTNFα: 1 ng/ml; 5Z-7-Oxozeaenol: 0.5 μM; Velcade: 50 nM; Apt-1/ICCB-19/ICCB-19i/Nec-1s: 10 μM.

Murine RGC5(661W) cells = experiment: RIPK1-dependent apoptosis (RDA) of RGC5 cells induced by TNFα plus 5Z-7-Oxozeaenol; format: cell-based; settings: Mus musculus, 21 hours
Procedure: as §1, with “Murine RGC5(661W)” for “Human Jurkat”, “(4000” for “(20000”, “TNFα” for “Velcade”, “0.5 ng/ml TNFα plus 0.5 μM 5Z-7-Oxozeaenol to induce RIPK1-dependent apoptosis (RDA).” for “50 nM Velcade.”, “21” for “24”

MEFs = experiment: RDA in MEFs induced by mTNFα and 5Z-7-Oxozeaenol, cell survival; format: cell-based, mouse; settings: 10 μM
Procedure: as §2

H4 cells = experiment: Autophagy by LC3II western blotting in H4 cells (FIG. 21); format: cell-based; settings: 10 uM, 1 h pretreatment, 6 h vehicle or 40 mM NH4Cl
Procedure: (§3) Wild-type H4 and MEF cells that were pretreated for 1 h with 10 uM of the specified compounds, followed by 6 h treatment with either vehicle or 40 mM NH4Cl. Cell lysates were prepared and immunoblotted for LC3-I and LC3-II. Autophagy was determined by LC3II levels using western blotting.

[1] = system: cleaved-caspase 3 (CC3) in MEF cells; experiment: Cleaved caspase 3 immunoblot in MEF cells treated with 5z-7-oxozeaenol and TNFα (FIG. 22); format: cell-based, mouse; settings: 10 uM; 2 h 0.5 uM 5z-7-oxozeaenol and 1 ng/mL TNFα
Procedure: (§4) Specifically, wild-type MEF cells were pretreated for 1 h with 10 uM of the specified compounds, followed by 2 h treatment with 0.5 uM 5z-7-oxozeaenol and 1 ng/mL TNFα. Cell lysates were prepared and immunoblotted for cleaved-caspase 3 (CC3). Wild-type Jurkat cells were also pretreated for 1 h with 10 uM of the specified compounds, followed by 12 h treatment with 50 nM Velcade. Cell lysates were prepared and immunoblotted for cleaved-caspase 3 (CC3).

[2] = system: cleaved caspase-3 in Jurkat cells; experiment: Cleaved caspase-3 immunoblot in Velcade-treated cells; format: cell-based, human; settings: 10 uM; 12 h 50 nM Velcade
Procedure: The levels of cleaved caspase-3 were determined by immunoblotting.
as §4

MEF cells = experiment: Autophagy by LC3II western blotting in MEF cells (FIG. 21); format: cell-based, mouse; settings: 10 uM, 1 h pretreatment, 6 h vehicle or 40 mM NH4Cl
Procedure: as §3

H4-GFP-LC3 cells = experiment: Autophagy induction, GFP-LC3 puncta and LC3II immunoblotting; format: cell-based; settings: 10 μM, 6 h (zVAD.fmk 20 μM)
Procedure: Mean ±s.e.m. (n=5). One-way ANOVA, post hoc Dunnett's test.
Autophagy was determined by LC3II levels using immunoblotting. SE=shorter exposure, LE=longer exposure.
Autophagy was measured by LC3II induction and p62 reduction by immunoblotting. The levels of LC3II in cells treated with both Apt-1 and NH4Cl, the latter of which inhibits lysosome, were higher than that treated with either Apt-1 or NH4Cl alone. Thus, ICCB-19/Apt-1, but not ICCB-19i, induce autophagic flux. Mean ±s.e.m. from technical triplicates (n=3), representative of 3 independent experiments. Two-tailed t-test. **P=0.0037.
Levels of LC3II determined by immunoblotting.
Cells were seeded at 2.5×10^4 cells per well on poly-L-lysine coated glass cover slips and transfected as described. Cells were fixed in 4% paraformaldehyde, followed by permeabilization with 0.1% Triton X-100. Nuclei were stained using DAPI (Sigma). Cells expressing GFP or RFP-fusion proteins were imaged with an Olympus Fluoview FV1000 confocal microscope (Olympus) using a 40×objective. For GFP-LC3 and DsRed-FYVE puncta quantification, the average spot intensity in 1000 cells from each indicated sample was determined. Images were processed using ImageJ and Photoshop CC. Concentration of compounds used to induce or block autophagy: 10 μM (Apt-1, ICCB-19, ICCB-19i or Spautin-1), for 6 h or as indicated.

[3] = Table 3, 50 nM Velcade, read-out: Jurkat Velcade IC50/μM
[4] = Table 3, 0.5 ng/ml TNFα plus 0.5 μM 5Z-7-Oxozeaenol, read-out: RGC5 T/5z7 IC50/μM
[5] = Table 2, 0.5 ng/ml TNFα plus 0.5 μM 5Z-7-Oxozeaenol, read-out: RGC5 T/5z7 IC50
[6] = Table 1, 50 nM Velcade, read-out: Apoptosis of Jurkat cells induced by Velcade (IC50 μM)

SMILES | IC50 (Human Jurkat cells; [3]) [µM] | IC50 (Murine RGC5(661W) cells; [4]) [µM] | other results
O=C(CSC1=NCCN1)NC1CCCCC1 [Compound 12] | – | – | IC50 (Murine RGC5(661W) cells; [5]): 2.36 µM
O=C(CSC1=NCCN1)NC1CCCC1 [Compound 13] | – | – | IC50 (Murine RGC5(661W) cells; [5]): 3.42 µM
O=C(CSC1=NCCN1)N1CCc2ccccc21 [ICCB-17] | – | – | IC50 (Human Jurkat cells; [6]): 13.4 µM
COc1ccc(NC(=O)CSC2=NCCN2)cc1 [Compound 5] | – | – | IC50 (Human Jurkat cells; [6]): 46.4 µM
N=C(N)SCc1ccccc1F [Compound 1] | – | – | IC50 (Human Jurkat cells; [6]): 6.2 µM
O=C(CSC1=NCCN1)NC1CCC1 [Compound 14] | – | – | IC50 (Murine RGC5(661W) cells; [5]): 4.51 µM
CN1C(=O)NC(Cc2c[nH]c3c(Cl)cccc23)C1=O (stereo not drawn) [Nec-1s, reference compound] | – | – | protection against RDA models (MEFs): protected against multiple RDA models
Cc1ccc(NC(=O)CSC2=NCCN2)cc1 [Compound 4] | – | – | IC50 (Human Jurkat cells; [6]): 10.5 µM
C/N=C(\NC)NCC(=O)N1CCCC1 [Compound 38] | – | – | autophagy (LC3II levels) in H4 cells (H4 cells): induce autophagy; cleaved caspase 3 in MEF cells [1]: block cleaved caspase 3; cleaved caspase 3 in Jurkat cells [2]: block cleaved caspase 3; autophagy (LC3II levels) in MEF cells (MEF cells): induce autophagy
COC(=O)C[C@H](NC(=O)[C@H](C)NC(=O)[C@@H](NC(=O)OCc1ccccc1)C(C)C)C(=O)CF [zVAD.fmk, reference compound] (Cbz-Val-Ala-Asp(OMe)-CH2F) | – | – | induction of autophagy (H4-GFP-LC3 cells): no effect on autophagy
N#Cc1ccc(CSC(=N)N)cc1 [Compound 7] | – | – | IC50 (Human Jurkat cells; [6]): 6.84 µM
Fc1ccccc1CSC1=NCCN1 [Compound 40] | 3.23 | 5.87 | autophagy (LC3II levels) in H4 cells (H4 cells): induce autophagy; cleaved caspase 3 in MEF cells [1]: block cleaved caspase 3; cleaved caspase 3 in Jurkat cells [2]: block cleaved caspase 3; autophagy (LC3II levels) in MEF cells (MEF cells): induce autophagy
Cc1ccccc1NC(=O)CSC1=NCCN1 [Compound 3] | – | – | IC50 (Human Jurkat cells; [6]): 32.1 µM
FC(F)=C(F)CCSC1=NCCN1 [Compound 8] | – | – | IC50 (Human Jurkat cells; [6]): 17.3 µM
O=C(CSC1=NCCN1)NC(c1ccccc1)c1ccccc1 [Compound 37] | 1.17 | 3.05 | –
COc1ccc(CSC(=N)N)cc1[N+](=O)[O-] [Compound 2] | – | – | IC50 (Human Jurkat cells; [6]): 4.4 µM

Continued, in another order:

IC50 (Human Jurkat cells; [3]) [µM] | IC50 (Murine RGC5(661W) cells; [4]) [µM] | SMILES | other results
0.882 | 2.21 | CN1CCN=C1SC(C(=O)NC1CCCCCC1)c1ccccc1Cl (stereo not drawn) [Compound 34] | –
3.87 | 1.83 | CC(C)C(SC1=NCCN1C)C(=O)NC1CCCCCC1 (stereo not drawn) [Compound 29] | –
1.04 | 1.67 | CN1CCN=C1SC(C)(C)C(=O)NC1CCCCCC1 [Compound 33] | –
1.99 | 3.08 | CN1CCN=C1SCC(=O)N(C)C1CCCCCC1 [Compound 26] | –
1.22 | 2.87 | CC(SC1=NCCN1)C(=O)N(C)C1CCCCCC1 (stereo not drawn) [Compound 25] | –
1.8 | 3.33 | CN1CCN=C1SCC(=O)NC1CCCCCC1 [Compound 19] | –
1.15 | 1.57 | CN1CCN=C1SC(C(=O)NC(c1ccccc1)c1ccccc1)c1ccccc1 (stereo not drawn) [Compound 42] | –
3.66 | 4.02 | CC(SC1=NCCN1)C(=O)NC1CCCCCC1 (stereo not drawn) [Compound 18] | –
1.46 | 8.84 | CN(C(=O)CSC1=NCCN1)C1CCCCCC1 [Compound 16] | –
3.06 | 2.81 | CC(SC1=NCCN1C)C(=O)NC1CCCCCC1 (stereo not drawn) [Compound 27] | –
0.953 | 2.93 | CC(SC1=NCCN1C)C(=O)N(C)C1CCCCCC1 (stereo not drawn) [Compound 28] | –
2.14 | 1.6 | CN1CCN=C1SC(C(=O)NC1CCCCCC1)c1ccc(Cl)cc1 (stereo not drawn) [Compound 35] | –
1.07 | 1.79 | CCN1CCN=C1SC(C(=O)NC1CCCCCC1)c1ccccc1 (stereo not drawn) [Compound 36] | –
